Patent publication US20250049787A1, “TREATMENT FOR ACUTE MYELOID LEUKEMIA OR LYMPHOMA” (UNIVERSITY HEALTH NETWORK, priority 2021, published 2025)
Counter-ions that a name gives are not always drawn.

Columns and labels:
[1] = system: PARP cleavage (apoptotic cell death); test: Immunoblot of PARP cleavage in MV-4-11 cells; assay type: cell-based, human; settings: 4 hours
Description: MV-4-11 cells (FLT3 LOH, FLT3-ITD positive cells) were treated with the indicated concentrations of Compound (I) tartrate for 4 hours at 37° C. and 5% CO2. Lysates were analyzed by immunoblot analysis with antibodies against FLT3 (Cell Signaling Technology, Inc., Cat. #3462), PARP (Cell Signaling Technology, Inc., Cat. #9542) and GAPDH (Millipore, Cat. #MAB374). Protein bands were visualized using a LI-COR Odyssey near infrared imager and representative data are shown. Compound (I) tartrate treatment increases the expression of the mature 160 kDa form of FLT3-ITD in MV-4-11 cells in a dose-dependent manner. Apoptotic cell death as measured by PARP cleavage was induced by Compound (I) tartrate treatment.

cell surface FLT3-ITD = test: Flow cytometry, cell surface FLT3 in primary human AML cells; assay type: cell-based; settings: FLT3-ITD positive primary AML cells, viable CD14− blasts, 48 and 72 hours, dose-dependent
Description: Patient samples were obtained from Dr. Mark Minden (Princess Margaret Cancer Centre, Toronto, Ontario, Canada). FLT3-ITD positive AML cells were treated with the indicated concentrations of Compound (I) for 48 and 72 hours at 37° C. and 5% CO2 and stained with APC-CD45, PECy7-CD38, APC/Fire 750-CD33, PerCP-CD14, PE-FLT3 (Beckman Coulter, Cat. IM2234U), PE/Dazzle 594-CD117 (BioLegend, Cat. #313226) or isotype control antibodies and analyzed on a BD LSRFortessa II flow cytometry analyzer. Data were analyzed using FlowJo software and representative data are shown. Compound (I) treatment increases the cell surface expression of FLT3 and c-KIT in a dose-dependent manner in viable CD14^− AML blast cells. Similar results were obtained in additional FLT3-ITD positive primary AML samples (data not shown).

With `CN1CCN(c2ccc3nc(-c4c(N)c5ccsc5[nH]c4=O)[nH]c3c2)CC1` [Compound (I) tartrate, 4-amino-5-(6-(4-methylpiperazin-1-yl)-1H-benzo[d]imidazol-2-yl)thieno[2,3-b]pyridin-6(7H)-one] the “apoptotic cell death as measured by PARP cleavage” value [1] was “induced” and the “cell surface expression of FLT3” value (cell surface FLT3-ITD) was “increases”.
